Reference: patent EP0450936A1, “Monoclonal antibody to avermectins” (MERCK & CO. INC., priority 1990, dated 1991)

Tests used:
[1] = test system: monoclonal antibody 3A6-1 Mab; experiment: competitive inhibition liquid phase RIA (monoclonal antibody specificity); type: binding, mouse; conditions: 50 ng inhibitor, 500 pg 3H-Avm B1a; for % ^3H-Tritium bound: antibody amount binding about 50% of label (Mab alone: 42)
Procedure: (§1) Specificity is determined by a competitive inhibition liquid phase RIA. The specificity is determined by contacting a known amount of labelled antigen (³H-Avm B1a) with constant amounts of other avermectins or ivermectin and then contacting this mixture with a constant amount of antibody specific for the labelled antigen. The concentration of antibody is an amount that is sufficient to bind about 50% of the labelled antigen employed in the assay.
as §1, with “B1a), 500 pg” for “B1a)”

[2] = detection of avermectin in mouse serum by competitive liquid phase RIA after intraperitoneal injection; type: in vivo, BALB/c mice; conditions: for Concentration per tube: serum at 1:10 dilution
Description: Monoclonal antibody specifically reactive with a common epitope or common epitopes contained within the compounds of the avermectin family and derivatives thereof are used serologically to identify and quantitate avermectins, including ivermectin, in animal body fluids and cell-free extracts. Body fluids include, but are not limited to, blood, serum, plasma, milk, urine, cerebrospinal fluid and the like. Cell-free extracts as used herein are defined as the fluids derived from disrupted cells. The avermectins can be identified and the concentration determined by a variety of immunoassays or serological assays which include, but are not limited to: immunoradiometric assays, employing labelled antibodies, Miles and Hales, Nature 219: 186 […] or a sandwich variant according to Addison and Hales, Hormone. Meta. Res. 3: 59 (1971); enzyme immunoassays, employing competitive assays with antigen-enzyme conjugates according to the method of Van Weeman and Schours, F.E.B.S. Lett. 15: 232 (1971) or enzyme-labelled antibody assays according to the procedure of Envall and Perlman, Immunochem. 8: 871 (1971) or a variant of the enzyme-labelled antibody assay which employs detection by a second antibody according to the process of Hammarstrom et al., Proc. Natl. Acad. Sci. USA 72: 1528 (1975) or non-competitive sandwich (ELISA) methods, see Nakamura et al., in Handbood of Experimental Immunology, Vol. 1, Immunochemistry, D. M. Weir, ed. 4th Edition (1986), Blackwell Scientific Publications, Oxford, pp. 27.1-27.20; or any other assay which will determine the concentration or presence of avermectin. The preferred assay is a competitive inhibition liquid phase radioimmuno assay (RIA). The avermectin concentration in animal body fluids is determined by diluting the fluid in an appropriate assay buffer. An appropriate assay buffer may include, but is not limited to, buffered saline, phosphate buffer, phosphate buffered saline, Dulbecco's phosphate buffered saline, Dulbecco's calcium-and-magnesium-free buffered saline and Tris buffer containing about 0.1 % CHAPSO with Tris-CHAPSO being preferred. The labelled antigen (³H-Avm) is diluted to a concentration of about 200 pg to about 700 pg, with about 500 pg being preferred, and contacted with an anti-avermectin monoclonal antibody at a concentration that will bind about 25% to about 75% of the labelled antigen, with about 50% being preferred. To the labelled antigen-antibody mixture is added an appropriate concentration or dilution of the unknown or sample containing avermectin or the standard containing a known amount of avermectin. The reactants are incubated at about 4° C to about 30° C, with about 25° C being preferred, for about 30 minutes to about 4 h, with about 2.5 h being preferred. All dilutions are made in the assay buffer and all determinations are made in duplicate. Non-antibody-bound radioactive avermectin is removed from the reaction mixture by chromatographic, precipitation, immunoprecipitation or adsorption techniques with adsorption of the unbound antigen onto dextran-coated activated charcoal being preferred. The dextran-coated charcoal is prepared by suspending activated charcoal, USP, at about 3% (w/v) in about 10 mM phosphate buffer, pH about 7.5, containing about 0.25% (w/v) dextran, about 60,000 to about 90,000 average mol. wt., with about 70,000 average mol. wt. being preferred. The dextran-coated activated charcoal is washed and resuspended in assay buffer and stored at a concentration of about 3%. About 1 ml of the dextran-coated activated charcoal suspension (dilution predetermined) is added to each sample and the samples are incubated for about 10 min at about 4° C. The charcoal is pelleted by centrifugation at about 3500 rpm for about 15 min. The supernatant quid is collected and the radioactivity counted in a liquid scintillation counter. […]

Compound	% Inhibition [1] [%]	% ^3H-Tritium bound [1] [%]	Concentration per tube ([2]; 15 min after 10 mg per Kg IP in sesame oil) [ng]	Concentration per tube ([2]; 30 min after 10 mg per Kg IP in sesame oil) [ng]	Concentration per tube ([2]; 60 min after 10 mg per Kg IP in sesame oil) [ng]	concentration at 0.25 h ([2]; mouse, serum, 10 mg/kg, 15 min after 10 mg per Kg IP in sesame oil, corrected for volume (50 µl) and dilution (1:10)) [µg/mL]	concentration at 0.5 h ([2]; mouse, serum, 10 mg/kg, 30 min after 10 mg per Kg IP in sesame oil, corrected for volume (50 µl) and dilution (1:10)) [µg/mL]	concentration at 1 h ([2]; mouse, serum, 10 mg/kg, 60 min after 10 mg per Kg IP in sesame oil, corrected for volume (50 µl) and dilution (1:10)) [µg/mL]
22, 23-dihydroavermectin B₁ [Ivm]	63	16	–	–	–	–	–	–
CCC(C)[C@H]1O[C@]2(C=C[C@@H]1C)C[C@@H]1C[C@@H](C/C=C(\C)[C@@H](O[C@H]3C[C@H](OC)[C@@H](O[C@H]4C[C@H](OC)[C@@H](O)[C@H](C)O4)[C@H](C)O3)[C@@H](C)/C=C/C=C3\CO[C@@H]4[C@H](O)C(C)=C[C@@H](C(=O)O1)[C@]34O)O2 (stereo partly drawn) [B1a, avermectin B1a]	53	20	2.4	13	42	0.48	2.6	8.4
CC[C@H](C)[C@H]1O[C@@]2(C[C@@H]3C[C@@H](C/C=C(\C)[C@@H](O[C@H]4C[C@H](OC)[C@@H](O[C@H]5C[C@H](OC)[C@@H](O)[C@H](C)O5)[C@H](C)O4)[C@@H](C)/C=C/C=C4\CO[C@@H]5[C@H](O)C(C)=C[C@@H](C(=O)O3)[C@]45O)O2)C[C@H](O)[C@@H]1C [B2a, avermectin B2a]	58	18	–	–	–	–	–	–
